# Laboratory results reported in PubChem BioAssay AID449750 (Broad Institute, 2010).
# Active and inactive are the calls of the source. No rule for the calls is given here.
# Test: non-covalent RecA intein splicing inhibitors, dose response, biochemical, cell-free, fluorescence, secondary screen (AID 449750)
row,Structure (SMILES),AC50
1,CN(N)C(=S)Nc1ccc(Cl)cc1,> 38 µM (inactive)
2,CCOC(=O)c1c(NC(=O)c2ccco2)n(C2CCCCC2)c2nc3ccccc3nc12,> 12 µM (inactive)
3,N#CC1=C(N)Oc2n[nH]c(-c3cccs3)c2C1c1cccnc1 (stereo not drawn),> 38 µM (inactive)
4,CC(=O)N(C1=C(N)C(=O)c2ccccc2C1=O)c1ccccc1,10.6 µM
5,C(=N\Nc1nncc2ccccc12)/c1ccccn1,19.8 µM
6,CC1=NN(c2ccc(S(=O)(=O)O)cc2Cl)C(=O)C1,3.66 µM
7,Cn1c(=O)c([N+](=O)[O-])c(-n2cnc3ccccc32)c2ccccc21,> 38 µM (inactive)
8,CC(C)Cc1ccc(-c2cc(=O)[nH][nH]2)cc1,13.1 µM
9,COc1cc(NCCCC(C)N)c2ncccc2c1 (stereo not drawn),18.1 µM
10,CC1=NN(c2ccc(Cl)cc2)C(=O)C1C(c1cccc(O)c1)c1c(C)[nH]n(-c2ccc(Cl)cc2)c1=O (stereo not drawn),7.91 µM
11,COc1cc2c(cc1OC)C(c1cc(Br)ccc1F)N(C(=O)CCl)CC2 (stereo not drawn),2.43 µM
12,O=[N+]([O-])c1c(Nc2ccccn2)cc(Cl)c2nonc12,1.76 µM
13,O=C1C(Nc2cccc(O)c2)=C(N2CCCCC2)C(=O)c2ccccc21,2.93 µM
14,CCc1ccc(S(=O)(=O)Nc2ccc(O)c3ccccc23)cc1,0.535 µM
15,O=C(/C=C/c1ccccc1)c1ccc2c3c(cccc13)CC2,3.7 µM
16,COc1ccc(C(c2c(C)[nH][nH]c2=O)c2c(C)[nH][nH]c2=O)cc1Br,11.2 µM
17,CCc1[nH]nc2c1C(c1cccc(OC(=O)N3CCOCC3)c1)C(C#N)=C(N)O2 (stereo not drawn),> 38 µM (inactive)
18,CCCc1[nH]nc2c1C(CCC)C(C#N)=C(N)O2 (stereo not drawn),> 38 µM (inactive)
19,COc1ccc(C2CC(c3cccs3)=NN2C(=O)CSC2=NCCS2)cc1 (stereo not drawn),38.2 µM
20,O=c1[nH]c(Nc2ccccn2)cc2ccccc12,> 38 µM (inactive)
21,COc1ccc(N2C(=O)CSC23C(=O)N2c4c(cccc43)C(C)=CC2(C)C)cc1 (stereo not drawn),30.8 µM
22,COc1ccccc1NC1=C(N2CCCCC2)C(=O)c2ccccc2C1=O,8.09 µM
23,COc1cccc(/C=C/C(=O)c2ccc(NS(=O)(=O)c3ccc(C)cc3)cc2)c1,6.79 µM
24,O=S(=O)(c1ccc(Cl)cc1)c1snnc1-c1ccccc1,> 38 µM (inactive)
25,CC(=O)C1=C(c2ccc(Br)cc2)C(=O)c2ccccc2C1=O,7.18 µM
26,O=C(O)CN1C(=O)/C(=C\c2ccc(OC(=O)c3ccco3)cc2)SC1=S,> 38 µM (inactive)
27,CC1=NN(c2ccccc2)C(=O)/C1=C\c1cc(C)n(-c2cccnc2)c1C,> 38 µM (inactive)

row,Structure (SMILES),AC50
1,COc1ccc(OC)c(C2C(C#N)=C(N)Oc3c2c(C)nn3-c2ccc(C)cc2)c1 (stereo not drawn),31.1 µM
2,CC1=CC2(O)OCCN(CCO)C2=CC1=O (stereo not drawn),13.5 µM
3,CCO/C=C1/C(=O)N(C)C(=O)c2cc(OC)ccc21,> 38 µM (inactive)
4,COc1cc(/C=C(\C#N)C(=O)c2c[nH]c3ccccc23)cc(OC)c1O,> 38 µM (inactive)
5,CCOC(=O)Cc1c(C)c2c(C)[nH]nc2oc1=O,> 38 µM (inactive)
6,O=C(CCl)c1cc2c3c(c1)CC(=O)N3CCC2,> 38 µM (inactive)
7,CC1C(=O)C(C)C(c2cc(Cl)ccc2O)NC1c1cc(Cl)ccc1O (stereo not drawn),5.18 µM
8,N#C/C(=C/c1ccncc1)c1nc2ccccc2s1,> 38 µM (inactive)
9,O=c1[nH]c2ccccc2n2c(-c3ccccc3)nnc12,22.5 µM
10,COC(=O)CCSc1cc(NCCOC(C)=O)c([N+](=O)[O-])c2nonc12,> 38 µM (inactive)
11,CC(C)CNC(=O)c1c(N)n(Cc2ccc3c(c2)OCO3)c2nc3ccccc3nc12,5.59 µM
12,CC1(CC(=O)N/N=C/c2ccc(OCc3ccc(Cl)cc3Cl)cc2)OCCCO1,11.2 µM
13,O=C(Nc1ccc(Cl)cc1)/C(=C/c1cccc(O)c1)c1nc2ccccc2s1,3.1 µM
14,COc1ccc(/C=C2/C(=O)N(c3ccccc3)N=C2C)cc1Br,5.66 µM
15,O=C1c2ccccc2-n2c1nc1ccccc1c2=O,> 38 µM (inactive)
16,Cc1cccc(CSC(Nc2ccc(F)cc2)=C(C#N)C#N)c1,> 38 µM (inactive)
17,N#CC1=C(N)Oc2n[nH]c(-c3cccs3)c2C1c1ccoc1 (stereo not drawn),> 38 µM (inactive)
18,N#CC1=C(N)Oc2n[nH]c(-c3cccs3)c2C1c1cccs1 (stereo not drawn),9.22 µM
19,CC(C)[C@H](NC(=O)Nc1ccc(Oc2ccccc2)cc1)C(=O)O,> 38 µM (inactive)
20,Cc1nc2ccccc2c2c1C(=O)N(c1cccc(C(=O)O)c1)C2=O,> 38 µM (inactive)
21,CN1C(=O)/C(=N\OC(=O)c2cccc3ccccc23)c2ccccc21,> 38 µM (inactive)
22,COC(=O)COc1c(Cl)cc(C(c2c(C)[nH][nH]c2=O)c2c(C)[nH][nH]c2=O)cc1OC,27.8 µM
23,CCCCNC1C(CC)C(CCC)C(C#N)(C#N)C1(C#N)C#N (stereo not drawn),> 38 µM (inactive)
24,Oc1ccc(N=Cc2ccc(O)c(O)c2)cc1,17.6 µM
25,COC(=O)CSc1nc(N)c2c3c(sc2n1)C(c1ccccc1)SC(c1ccccc1)C3 (stereo not drawn),> 38 µM (inactive)
26,COC(=O)c1cc([N+](=O)[O-])c(-n2ccnc2)c([N+](=O)[O-])c1,> 38 µM (inactive)
